From patent publication US5084442A, “Cyclic growth hormone releasing factor analogs and method for the manufacture thereof” (Hoffmann-La Roche Inc., priority 1988, dated 1992)

These compounds were tested on dispersed rat anterior pituitary cells (release of rat growth hormone) (assay: In Vitro (Cell Dispersion) Assay of GRF: growth hormone release measured by RIA). Conditions: growth hormone release from cultured rat pituitary cells, 4 hours of incubation, peptide 0.8 to 200 fmol per ml; compared with natural GRF(1-44)-NH2 (= 1.0).
Format: cell-based, rat (Sprague-Dawley)
Method: In Vitro (Cell Dispersion) Assay of GRF
Pituitaries from 30-40 male Sprague-Dawley rats (175 g) were removed aseptically after decapitation. The anterior lobes were collected, washed 3 times in sterile Hepes buffer (0.025 M) (pH 7.35) and dispersed at 37° in 20-30 ml Hepes buffer (pH 7.35) containing collagenase (4 mg per ml) and Dispase (Protease grade II, 2 mg per ml). After gentle 100-110 min vortexing and trituration by Pasteur pipette, the dispersed cells were separated by centrifugation (150×g, 4 min) and re-suspended in Hepes buffer containing neuraminidase ([…]), and 200 µg/ml ethylenediaminetetraacetic acid (EDTA) disodium salt, pH 7.35, for 10 min.
The cells were washed twice with plating medium and plated on multiwell-plates (1.5×10^5 cells per ml) using the following defined medium: F-12/DMEM/BGJ (6:3:1) (Gibco: 430-1700/430-1600/320-2591) with 2 g BSA/1., 2.38 g Hepes/1.50 mg PSN antibiotic mixture (Gibco Laboratories), 10 mg/l transferring (Sigma T2252) with 1.83 g NaHCO3 /l (Baker 3506). The medium in each well was supplemented either with a sample of the novel GRF peptide or natural GRF(1-44)-NH2 at concentrations ranging from 0.8 to 200 fmol per ml of medium. Control wells contained no supplement. Plating was done with this medium added with 2% fetal calf serum to ensure rapid fixation of the cells.
On the fourth day, the cells were washed twice with the defined medium without fetal calf serum. Finally, 900 μl of defined medium was added to each well plus 100 μl of the same medium containing each individual treatment, in triplicate. After 4 hours of incubation the medium was collected and diluted as required to conduct radioimmunoassay (RIAs) for rat growth hormone.
RIAs for rat growth hormone were conducted using Sinha's anti-murine GH immune serum and procedures according to the National Pituitary Agency using protein A to precipitate antibody antigen complex.

| Compound | RELATIVE POTENCY |
| --- | --- |
| CC[C@H](C)[C@H](NC(=O)[C@H](C)NC(=O)[C@H](CC(=O)O)NC(=O)[C@H](C)NC(=O)[C@@H](N)Cc1ccc(O)cc1)C(=O)N[C@@H](Cc1ccccc1)C(=O)N[C@H](C(=O)N[C@@H](CC(N)=O)C(=O)N[C@@H](CO)C(=O)N[C@@H](Cc1ccc(O)cc1)C(=O)N[C@@H](CCCNC(=N)N)C(=O)N[C@@H](CCCCN)C(=O)N[C@H](C(=O)N[C@@H](CC(C)C)C(=O)NCC(=O)N[C@@H](CCC(N)=O)C(=O)N[C@@H](CC(C)C)C(=O)N[C@@H](CO)C(=O)N[C@@H](C)C(=O)N[C@@H](CCCNC(=N)N)C(=O)N[C@@H](CCCCN)C(=O)N[C@@H](CC(C)C)C(=O)N[C@@H](CC(C)C)C(=O)N[C@@H](CCC(N)=O)C(=O)N[C@@H](CC(=O)O)C(=O)N[C@H](C(=O)N[C@@H](CCSC)C(=O)N[C@@H](CO)C(=O)N[C@@H](CCCNC(=N)N)C(=O)N[C@@H](CCC(N)=O)C(=O)N[C@@H](CCC(N)=O)C(=O)NCC(=O)N[C@@H](CCC(=O)O)C(=O)N[C@@H](CO)C(=O)N[C@@H](CC(N)=O)C(=O)N[C@@H](CCC(N)=O)C(=O)N[C@@H](CCC(=O)O)C(=O)N[C@@H](CCCNC(=N)N)C(=O)NCC(=O)N[C@@H](C)C(=O)N[C@@H](CCCNC(=N)N)C(=O)N[C@@H](C)C(=O)N[C@@H](CCCNC(=N)N)C(=O)N[C@@H](CC(C)C)C(N)=O)[C@@H](C)CC)C(C)C)[C@@H](C)O [GRF(1-44)--NH2, GRF(1-44)-NH2, reference compound] | 1.0 |
| Cyclo^21,25 [Ala^15 ]-GRF(1-29)-NH2 [Cyclo^21,25 --[Ala^15]--GRF(1-29)--NH2] | 1.27 |
| Cyclo^8,12;21,25 [N-MethylTyr^1,D-Ala^2, Asp^8, Ala^15 ]-GRF(1-29)-NH2 | 0.61 |
| Cyclo^21,21 [N-MethylTyr^1, D-Ala^2, Ala^15 ]-GRF(1-29)-NH2 | 1.92 |
| Cyclo^21,25 [desNH2 Tyr^1,Ala^15 ]-GRF(1-29)-NH2 | 1.47 |
| Cyclo^8,12;21,25 [Asp^8, Ala^15 ]-GRF(1-29)-NH2 | 2.24 |
| Cyclo^21,25 [D-Ala^2, Ala^15 ]-GRF(1-29)-NH2 | 1.99 |
